Consider 3 compounds from PMC12809495, “Potential 14-3-3 binding sites in sirtuins reveal extended phosphosite-recognition modes” (Acta Crystallographica Section F: Structural Biology …, 2026).

Where a SMILES comes first, the peptide text is derived from it. [ ]: non-standard residue; d: D form. pS = N[C@@H](COP(=O)(O)O)C(=O)O

One test addresses T1, 14-3-3σ-ΔC (Homo sapiens, UniProt P31947).
T1 construct: His6; made in house; host or cells: Escherichia coli BL21 Rosetta (DE3)
T1 sequence (P31947 1-231 limits assumed): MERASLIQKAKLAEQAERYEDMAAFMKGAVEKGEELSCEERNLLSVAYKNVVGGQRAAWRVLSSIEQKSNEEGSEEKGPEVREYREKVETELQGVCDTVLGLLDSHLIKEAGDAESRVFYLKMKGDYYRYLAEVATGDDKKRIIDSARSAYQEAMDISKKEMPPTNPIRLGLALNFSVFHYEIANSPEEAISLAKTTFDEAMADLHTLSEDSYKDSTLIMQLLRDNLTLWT
Nature of the test: Label-free microscale thermophoresis (MST) binding, 14-3-3σ. The settings on record: for Affinity estimates by MicroScale Thermophoresis, 14-3-3 isoform sigma (Kd): Fig. 1, label-free MST, 0.6 µM 14-3-3 protein, 25 mM MES pH 6.5, 5 mM MgCl2, 5 mM CaCl2, 25°C, Kd from duplicate measurements. As for the experimental part: (§1) The binding of phosphorylated sirtuin peptides (Fig. 1 ▸) was analyzed using the change in the intrinsic fluorescence signal of the 14-3-3 proteins measured with label-free microscale thermophoresis using a Nanotemper Monolith NT.LabelFree or NT.115. A typical binding experiment using 0.6 µM 14-3-3 protein was performed in a modified MST buffer consisting of 25 mM MES pH 6.5, 5 mM MgCl2, 5 mM CaCl2. The measurements were performed at 25°C using a LED power of 10–40%. All measurements were performed at least in duplicate, and the results shown are representative measurements individually fitted using GraFit 7 (Erathicus Software, Horley, United Kingdom).
(§2) Figure 1 Classification and analysis of sirtuin PSSM results for potential 14-3-3 phosphoserine binding sites. Peptides with a gray background were not analyzed experimentally. Score is the overall PSSM score for the phosphorylation site; rank is the order within the 17 proposed sirtuin binding sites. Conserved residues in the 14-3-3 motifs are marked in green. Residues with restricted (proline) or very flexible (glycine) protein backbone or with a very large side chain (tryptophan) are marked in red. Amino acids with the same or similar hydrophobicity/size are shown in magenta. Kd values from duplicate measurements are colored green for Kd < 100 µM. Fields marked in red indicate no binding or no successful experiment. TEXT PRINTED IN THE PICTURE: Sirt1 S26: Affinity estimates by MicroScale Thermophoresis [μM], 14-3-3 isoform sigma: none | Sirt1 S670: Affinity estimates by MicroScale Thermophoresis [μM], 14-3-3 isoform gamma: aggr.; Affinity estimates by MicroScale Thermophoresis [μM], 14-3-3 isoform epsilon: > 183; Affinity estimates by MicroScale Thermophoresis [μM], 14-3-3 isoform theta: 93; Affinity estimates by MicroScale Thermophoresis [μM], 14-3-3 isoform sigma: 5 | Sirt3 S103: Affinity estimates by MicroScale Thermophoresis [μM], 14-3-3 isoform gamma: aggr.; Affinity estimates by MicroScale Thermophoresis [μM], 14-3-3 isoform epsilon: > 267; Affinity estimates by MicroScale Thermophoresis [μM], 14-3-3 isoform theta: 52; Affinity estimates by MicroScale Thermophoresis [μM], 14-3-3 isoform sigma: 10 | Sirt3 S103wt: Affinity estimates by MicroScale Thermophoresis [μM], 14-3-3 isoform gamma: aggr.; Affinity estimates by MicroScale Thermophoresis [μM], 14-3-3 isoform theta: none; Affinity estimates by MicroScale Thermophoresis [μM], 14-3-3 isoform sigma: none | Sirt3 S105: Affinity estimates by MicroScale Thermophoresis [μM], 14-3-3 isoform gamma: aggr.; Affinity estimates by MicroScale Thermophoresis [μM], 14-3-3 isoform epsilon: > 215; Affinity estimates by MicroScale Thermophoresis [μM], 14-3-3 isoform theta: 60; Affinity estimates by MicroScale Thermophoresis [μM], 14-3-3 isoform sigma: none | Sirt5 S168: Affinity estimates by MicroScale Thermophoresis [μM], 14-3-3 isoform epsilon: aggr.; Affinity estimates by MicroScale Thermophoresis [μM], 14-3-3 isoform theta: aggr.; Affinity estimates by MicroScale Thermophoresis [μM], 14-3-3 isoform sigma: > 329 | Sirt6 T337: Affinity estimates by MicroScale Thermophoresis [μM], 14-3-3 isoform epsilon: > 420; Affinity estimates by MicroScale Thermophoresis [μM], 14-3-3 isoform sigma: 12 | Sirt6 S338: Affinity estimates by MicroScale Thermophoresis [μM], 14-3-3 isoform epsilon: 19; Affinity estimates by MicroScale Thermophoresis [μM], 14-3-3 isoform sigma: 24 | Sirt7 S136: Affinity estimates by MicroScale Thermophoresis [μM], 14-3-3 isoform epsilon: none; Affinity estimates by MicroScale Thermophoresis [μM], 14-3-3 isoform theta: 30; Affinity estimates by MicroScale Thermophoresis [μM], 14-3-3 isoform sigma: 49
For nine of the sites, including sites from all sirtuin isoforms except Sirt4, endecameric phosphopeptides were chemically synthesized for in vitro analysis. […]

Another test has as its target T2, 14-3-3 isoform theta (Homo sapiens, UniProt P27348).
T2 construct: His6; made in house; host or cells: Escherichia coli BL21 Rosetta (DE3)
T2 sequence (P27348 1-245): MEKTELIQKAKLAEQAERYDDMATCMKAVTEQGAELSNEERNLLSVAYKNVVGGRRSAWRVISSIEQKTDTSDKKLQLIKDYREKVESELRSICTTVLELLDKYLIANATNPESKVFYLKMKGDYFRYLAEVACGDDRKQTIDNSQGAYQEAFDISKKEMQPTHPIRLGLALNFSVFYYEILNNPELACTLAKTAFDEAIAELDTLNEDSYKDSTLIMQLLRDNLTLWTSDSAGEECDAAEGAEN
Nature of the test: Label-free microscale thermophoresis (MST) binding, 14-3-3 theta. As to the method:
as §1, §2
(In general: In MST a laser heats a spot of the sample, and binding alters the fluorescence response.)

The target of the next test is T3, 14-3-3 isoform gamma (Homo sapiens, UniProt P61981).
T3 construct: His6; made in house; host or cells: Escherichia coli BL21 Rosetta (DE3)
T3 sequence (P61981 1-247): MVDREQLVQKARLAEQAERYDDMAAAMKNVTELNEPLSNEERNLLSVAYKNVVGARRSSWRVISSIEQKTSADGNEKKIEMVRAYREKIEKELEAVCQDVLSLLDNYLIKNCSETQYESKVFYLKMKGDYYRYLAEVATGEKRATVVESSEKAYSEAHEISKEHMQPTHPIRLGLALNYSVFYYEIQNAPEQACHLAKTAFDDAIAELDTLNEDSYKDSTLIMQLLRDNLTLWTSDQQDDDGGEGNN
Nature of the test: Label-free microscale thermophoresis (MST) binding, 14-3-3 gamma. The settings on record: 0.6 µM 14-3-3 protein, 25 mM MES pH 6.5, 5 mM MgCl2, 5 mM CaCl2, 25°C, Kd from duplicate measurements, aggr. = no successful experiment. As for the experimental part: as §1
Figure 1 Classification and analysis of sirtuin PSSM results for potential 14-3-3 phosphoserine binding sites. Peptides with a gray background were not analyzed experimentally. Score is the overall PSSM score for the phosphorylation site; rank is the order within the 17 proposed sirtuin binding sites. Conserved residues in the 14-3-3 motifs are marked in green. Residues with restricted (proline) or very flexible (glycine) protein backbone or with a very large side chain (tryptophan) are marked in red. Amino acids with the same or similar hydrophobicity/size are shown in magenta. Kd values from duplicate measurements are colored green for Kd < 100 µM. Fields marked in red indicate no binding or no successful experiment. […]

For a further test, the target named is T4, 14-3-3 isoform epsilon (Homo sapiens, UniProt P62258).
T4 construct: His6; made in house; host or cells: Escherichia coli BL21 Rosetta (DE3)
T4 sequence (P62258 1-255): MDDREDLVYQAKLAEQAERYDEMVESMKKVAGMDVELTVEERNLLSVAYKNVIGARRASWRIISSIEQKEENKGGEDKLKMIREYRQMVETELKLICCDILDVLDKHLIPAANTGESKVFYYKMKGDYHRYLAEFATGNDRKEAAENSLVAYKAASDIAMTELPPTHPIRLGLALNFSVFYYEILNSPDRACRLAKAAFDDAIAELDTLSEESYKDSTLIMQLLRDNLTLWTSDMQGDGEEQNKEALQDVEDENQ
Nature of the test: Label-free microscale thermophoresis (MST) binding, 14-3-3 epsilon. As for the experimental part: as §1, §2

What is called Kd is the equilibrium constant for the complex coming apart. On to `CC[C@H](C)[C@H](NC(=O)[C@H](CO)NC(=O)[C@H](CCCNC(=N)N)NC(=O)[C@H](CCCNC(=N)N)NC(=O)CN)C(=O)N[C@@H](COP(=O)(O)O)C(=O)N[C@@H](Cc1ccccc1)C(=O)N[C@@H](CO)C(=O)N[C@H](C(=O)NCC(=O)N[C@@H](C)C(=O)O)C(C)C` [Sirt3^pS103] (H-GRRSI[pS]FSVGA-OH), for which the results for the Kd at 14-3-3σ-ΔC, at 14-3-3 isoform theta and at 14-3-3 isoform epsilon were 2.1 ± 1.1 µM, 52 µM and over 267 µM, respectively. In addition, at 14-3-3 isoform gamma, the “Affinity estimates by MicroScale Thermophoresis, 14-3-3 isoform gamma (Kd)” value (“Affinity estimates … 14-3-3 isoform gamma (Kd)” for short) is recorded as “aggr”.
On to `CC[C@H](C)[C@H](NC(=O)[C@H](CO)NC(=O)[C@@H](N)CCCNC(=N)N)C(=O)N[C@@H](CO)C(=O)N[C@@H](Cc1ccccc1)C(=O)N[C@@H](COP(=O)(O)O)C(=O)N[C@H](C(=O)NCC(=O)N[C@@H](C)C(=O)N[C@@H](CO)C(=O)N[C@@H](CO)C(=O)O)C(C)C` [Sirt3^pS105] (H-RSISF[pS]VGASS-OH), for which the equilibrium dissociation constant (Kd) at 14-3-3σ-ΔC was 19.4 ± 3 µM; at 14-3-3 isoform theta, 60 µM; on 14-3-3 isoform epsilon, over 215 µM. For the same compound, the “Affinity estimates by MicroScale Thermophoresis, 14-3-3 isoform sigma (Kd)” value at 14-3-3σ-ΔC is “none”. For the same compound, the “Affinity estimates … 14-3-3 isoform gamma (Kd)” value on 14-3-3 isoform gamma was “aggr”.
Take `CC[C@H](C)[C@H](NC(=O)[C@H](CO)NC(=O)[C@H](CCCNC(=N)N)NC(=O)[C@H](CCCNC(=N)N)NC(=O)CN)C(=O)N[C@@H](CO)C(=O)N[C@@H](Cc1ccccc1)C(=O)N[C@@H](CO)C(=O)N[C@H](C(=O)NCC(=O)N[C@@H](C)C(=O)O)C(C)C` [Sirt3^S103] (H-GRRSISFSVGA-OH): at 14-3-3σ-ΔC, the “Affinity estimates by MicroScale Thermophoresis, 14-3-3 isoform sigma (Kd)” value is recorded as “none”. For the same compound, the “Affinity estimates by MicroScale Thermophoresis, 14-3-3 isoform theta (Kd)” value on 14-3-3 isoform theta (label-free MST, 0.6 µM 14-3-3 protein, 25 mM MES pH 6.5, 5 mM MgCl2, 5 mM CaCl2, 25°C, Kd from duplicate measurements) is given as “none”. On 14-3-3 isoform gamma, the “Affinity estimates … 14-3-3 isoform gamma (Kd)” value is “aggr”.
